Test results taken from US20240124545A1, “COMPOSITIONS AND METHODS RELATING TO THE TREATMENT OF DISEASES” (ILC THERAPEUTICS LIMITED, priority 2021, published 2024).
Several values for one entry are separate records, joined by “and”; a condition that tells them apart may be missing. Identical values can stand only once.

Columns and labels:
HRSV Long strain = test: HRSV infectivity assay, immunostaining readout in HEp-2 cells; assay type: cell-based, human respiratory syncytial virus (HRSV) Long strain

SMILES | Viability of Uninfected HeLa-CD4-β gal Cells (% vehicle alone), controls (HeLa-CD4-βgal cells) [% vehicle alone] | HRSV infection blocked by antiviral control (HRSV Long strain; 50 μM) | HRSV Infectivity in HEp-2 cells (% vehicle) (HRSV Long strain; control antiviral 50 μM, 72 hours) | HRSV Infectivity in HEp-2 cells - Raw OD- Absorbance (490 nm) (HRSV Long strain; control antiviral 50 μM, duplicate A490 values)
C[S+](C)[O-] [DMSO] | −0.5 ± 0.1 | – | – | –
NC(=O)c1ncn([C@@H]2O[C@H](CO)[C@@H](O)[C@H]2O)n1 [Rib, ribavirin, reference compound] | – | over 99% | −4.7 | 0.195 and 0.176
